The record followed here is patent US4400517A, “Phosphoric esters derived from 1,2,4-triazole having an insecticidal, nematocidal and acaricidal action, and their preparation” (priority 1976, dated 1983).

The structures appear in SMILES notation.

In the first assay the test system is Spodoptera littoralis. Put plainly: Biological activity on Spodoptera littoralis (Lepidoptera). It counts as in vivo. The following applies: 48 h, 0.05%o, Table 5, read-out: Activity (mortality class), Spodoptera L. The protocol:
(7) Biological activity on Spodoptera littoralis (Lepidoptera)
Cut tobacco leaves were sprinkled with an aqueous dispersion of the products under examination (see Tables 4 and 5).
After drying, the leaves were infested with 5-day old larvae.
The percentage of mortality of the larvae was determined after 48 hours from treatment (untreated leaves, mortality=0).
As for `CCOP(=S)(OCC)Oc1nc(C=C(Cl)OC)nn1C` [M 8592], the mortality at 0.005 % turned out to be 100%.
Same read-out and setting: for `CCCCn1nc(C=C(Cl)Cl)nc1OP(=S)(OC)OC` [M 8477] the value was 10 to 69%; for `CC=Cc1nc(OP(=S)(OCC)OCC)n(CCCC)n1` [M 8497], 0 to 9%.

The same assay, now with this note: 48 h, 1%o, Table 5, read-out: Activity (mortality class), Spodoptera L.
As to `CCOP(=S)(OCC)Oc1nc(C=C(Cl)OC)nn1C` [M 8592], the mortality at 0.1 % is 100%.
For `C=Cc1nc(OP(=S)(OCC)OCC)n(-c2ccccc2)n1` [M 8261], the mortality at 0.1 % worked out at 100%.
Same read-out and setting: to `CCCOP(=S)(OCCC)Oc1nc(C=C(Cl)Cl)nn1C(C)C` [M 8500] belongs 10 to 69%; to `CCOP(=S)(OCC)Oc1nc(C=Cc2ccccc2)nn1C` [M 8332], 100%.
Same read-out and setting: to `CCCCn1nc(C=C(Cl)Cl)nc1OP(=S)(OC)OC` [M 8477] belongs 100%.
The same measure, in the same setting: for `CCOP(=S)(OCC)Oc1nc(C2=C(Cl)CCCC2)nn1C` [M 5338/89] the value was 100%.
For `CCOP(=S)(OCC)Oc1nc(C=C(Br)Br)nn1C` [M 8308], the mortality at 0.1 % amounted to 100%.

The next assay has as its system Pieris brassicae. Put plainly: Biological activity on Pieris brassicae (Lepidoptera). It counts as in vivo. The following applies: 48 h, 0.01%o, Table 5, read-out: Activity (mortality class), Pieris B. The protocol: (2) Biological activity on Pieris brassicae (Lepidotera)
Cut-off cauliflower leaves were sprinkled with an aqueous dispersion of the products under examination (see TABLE 5).
After drying, the leaves were infested with 5-day old larvae. The percentage of mortality of the larvae (untreated leaves=0) was determined after 48 hours from treatment.
As to `CCOP(=S)(OCC)Oc1nc(C=C(Cl)OC)nn1C` [M 8592], the mortality at 0.001 % came to 100%.
Still for that read-out and setting: to `CCCOP(=S)(OCCC)Oc1nc(C=C(Cl)Cl)nn1C(C)C` [M 8500] belongs 10 to 69%.
As to `CCOP(=S)(OCC)Oc1nc(C=Cc2ccccc2)nn1C` [M 8332], the mortality at 0.001 % was in the range of 10 to 69%.
Turning to `CCOP(=S)(OCC)Oc1nc(C2=C(Cl)CCCC2)nn1C` [M 5338/89], the mortality at 0.001 % fell in the range of 10 to 69%.
The same measure, in the same setting: for `CC=Cc1nc(OP(=S)(OCC)OCC)n(CCCC)n1` [M 8497] the value was 70 to 99%.

Staying with this assay, now noted: 48 h, 1%o, Table 5, read-out: Activity (mortality class), Pieris B.
`CCOP(=S)(OCC)Oc1nc(C=C(Cl)OC)nn1C` [M 8592]: the mortality at 0.1 % came out at 100%.
Take `C=Cc1nc(OP(=S)(OCC)OCC)n(-c2ccccc2)n1` [M 8261]: the mortality at 0.1 % turned out to be 100%.
With `CCCOP(=S)(OCCC)Oc1nc(C=C(Cl)Cl)nn1C(C)C` [M 8500], the mortality at 0.1 % amounted to 100%.
As for `CCOP(=S)(OCC)Oc1nc(C=Cc2ccccc2)nn1C` [M 8332], the mortality at 0.1 % is 100%.
Consider `CCCCn1nc(C=C(Cl)Cl)nc1OP(=S)(OC)OC` [M 8477], for which the mortality at 0.1 % came to 100%.
Same read-out and setting: to `CCOP(=S)(OCC)Oc1nc(C2=C(Cl)CCCC2)nn1C` [M 5338/89] belongs 100%; to `CCOP(=S)(OCC)Oc1nc(C=C(Br)Br)nn1C` [M 8308], 100%.

Another assay relates to Tetranychus urticae. As to the kind of experiment: Biological activity on adults of Tetranychus urticae (Acari). Particulars: 24 h, 0.01%o, Table 5, read-out: Activity (mortality class), Tetranychus U. (adults). It counts as in vivo. The procedure: (5) Biological activity on adults of Tetranychus urticae (Acari)
Discs of bean leaves were infested with adult acari and then sprinkled with an aqueous dispersion of the products under examination (see Tables 4 and 5).
The mortality percentage was determined after 24 hours from treatment (untreated leaf discs, mortality=0).
For the compound `CCOP(=S)(OCC)Oc1nc(C=C(Cl)OC)nn1C` [M 8592], the mortality at 0.001 % was 100%.
On the same count and under the same terms, for `CCOP(=S)(OCC)Oc1nc(C2=C(Cl)CCCC2)nn1C` [M 5338/89] the value was 70 to 99%; for `CC=Cc1nc(OP(=S)(OCC)OCC)n(CCCC)n1` [M 8497], 10 to 69%.

Still in this assay, the particulars now being: 24 h, 1%o, Table 5, read-out: Activity (mortality class), Tetranychus U. (adults).
Regarding `CCOP(=S)(OCC)Oc1nc(C=C(Cl)OC)nn1C` [M 8592], the mortality at 0.1 % amounted to 100%.
Same read-out and setting: for `C=Cc1nc(OP(=S)(OCC)OCC)n(-c2ccccc2)n1` [M 8261] the value was 100%; for `CCCOP(=S)(OCCC)Oc1nc(C=C(Cl)Cl)nn1C(C)C` [M 8500], 10 to 69%; for `CCOP(=S)(OCC)Oc1nc(C=Cc2ccccc2)nn1C` [M 8332], 100%.
Take `CCCCn1nc(C=C(Cl)Cl)nc1OP(=S)(OC)OC` [M 8477]: the mortality at 0.1 % is 100%.
In the case of `CCOP(=S)(OCC)Oc1nc(C2=C(Cl)CCCC2)nn1C` [M 5338/89], the mortality at 0.1 % worked out at 100%.
For the compound `CCOP(=S)(OCC)Oc1nc(C=C(Br)Br)nn1C` [M 8308], the mortality at 0.1 % was 100%.

For another assay, the system named is Leptinotarsa decemlineata. Put plainly: Biological activity on Leptinotarsa decemlineata (Coleoptera). The following applies: 48 h, 0.05%o, Table 5, read-out: Activity (mortality class), Leptinotarsa D. Format: in vivo. The protocol:
(3) Biological activity on Leptinotarsa decemlineata (Coleoptera)
Small potato plants grown in pots were infested with 4-day old larvae, and were then sprinkled with an aqueous dispersion of the products under examination (see Tables 4 and 5).
The mortality percentage (untreated small plants=0) was determined after 48 hours from treatment.
Regarding `CCOP(=S)(OCC)Oc1nc(C=C(Cl)OC)nn1C` [M 8592], the mortality at 0.005 % came to 100%.
Same read-out and setting: for `CCOP(=S)(OCC)Oc1nc(C2=C(Cl)CCCC2)nn1C` [M 5338/89] the value was 10 to 69%.
On the same count and under the same terms, to `CC=Cc1nc(OP(=S)(OCC)OCC)n(CCCC)n1` [M 8497] belongs 100%.

The same assay, now with this note: 48 h, 1%o, Table 5, read-out: Activity (mortality class), Leptinotarsa D.
As for `CCOP(=S)(OCC)Oc1nc(C=C(Cl)OC)nn1C` [M 8592], the mortality at 0.1 % came to 100%.
Same read-out and setting: for `C=Cc1nc(OP(=S)(OCC)OCC)n(-c2ccccc2)n1` [M 8261] the value was 100%; for `CCCOP(=S)(OCCC)Oc1nc(C=C(Cl)Cl)nn1C(C)C` [M 8500], 100%.
Consider `CCOP(=S)(OCC)Oc1nc(C=Cc2ccccc2)nn1C` [M 8332], for which the mortality at 0.1 % lay in the range of 70 to 99%.
For `CCCCn1nc(C=C(Cl)Cl)nc1OP(=S)(OC)OC` [M 8477], the mortality at 0.1 % came out at 100%.
The same measure, in the same setting: to `CCOP(=S)(OCC)Oc1nc(C2=C(Cl)CCCC2)nn1C` [M 5338/89] belongs 100%.
Consider `CCOP(=S)(OCC)Oc1nc(C=C(Br)Br)nn1C` [M 8308], for which the mortality at 0.1 % worked out at 100%.

The subject of another assay is Blatta orientalis. Put plainly: Biological activity on Blatta orientalis (Ortoptera). Format: in vivo. The following applies: Blatta orientalis, 48 h; 0,01 g/m^2; Table 5; read-out: Activity (mortality class), Blatta O. The protocol: (10) Biological activity on Blatta orientalis (Ortoptera)
The bottom and walls of glass crystallizers were treated uniformly with an acetonic solution of the products under examination (see Tables 4 and 5). After evaporation of the solvent, into each crystallizer were introduced ten 80-100 days old neanides. The crystallizers were then closed with a metal net cover. After 24 hours from the start of the treatment, the insects were transferred to similar untreated crystallizers, and there were appropriately nourished in conventional manner.
The percentage of mortality (untreated insects=0) was determined after 48 hours from the start of the treatment.
Consider `CCOP(=S)(OCC)Oc1nc(C=C(Cl)OC)nn1C` [M 8592], for which the mortality at 0.01 g/m2 was found to be 100%.
As to `CCOP(=S)(OCC)Oc1nc(C=Cc2ccccc2)nn1C` [M 8332], the mortality at 0.01 g/m2 was determined as 100%.
Regarding `CC=Cc1nc(OP(=S)(OCC)OCC)n(CCCC)n1` [M 8497], the mortality at 0.01 g/m2 lay within 10 to 69%.

Still in this assay, the particulars now being: Blatta orientalis, 48 h; 1 g/m^2; Table 5; read-out: Activity (mortality class), Blatta O.
Regarding `CCOP(=S)(OCC)Oc1nc(C=C(Cl)OC)nn1C` [M 8592], the mortality at 1 g/m2 came to 100%.
`C=Cc1nc(OP(=S)(OCC)OCC)n(-c2ccccc2)n1` [M 8261]: the mortality at 1 g/m2 was determined as 100%.
Still for that read-out and setting: for `CCCOP(=S)(OCCC)Oc1nc(C=C(Cl)Cl)nn1C(C)C` [M 8500] the value was 0 to 9%; for `CCOP(=S)(OCC)Oc1nc(C=Cc2ccccc2)nn1C` [M 8332], 100%.
Still for that read-out and setting: to `CCCCn1nc(C=C(Cl)Cl)nc1OP(=S)(OC)OC` [M 8477] belongs 100%; to `CCOP(=S)(OCC)Oc1nc(C2=C(Cl)CCCC2)nn1C` [M 5338/89], 100%; to `CCOP(=S)(OCC)Oc1nc(C=C(Br)Br)nn1C` [M 8308], 100%.

In another assay the test system is Culex pipiens. As to the kind of experiment: Biological activity on Culex pipiens larvae (Diptera). Format: in vivo. The following applies: 24 h, 0.02 ppm, Table 5, read-out: Activity (mortality class), Culex P. (larvae). The protocol: (4) Biological activity on Culex pipiens (Diptera)
Into glasses containing an aqueous dispersion of the products under examination (see Tables 4 and 5) there were introduced mosquito larvae of third and fourth age.
The mortality percentage of the larvae (glasses containing pure water=0) was determined after 24 hours from treatment.
For `CCOP(=S)(OCC)Oc1nc(C=C(Cl)OC)nn1C` [M 8592], the mortality at 0.02 ppm was in the range of 10 to 69%.
On the same count and under the same terms, to `CC=Cc1nc(OP(=S)(OCC)OCC)n(CCCC)n1` [M 8497] belongs 0 to 9%; to `CCOP(=S)(OCC)Oc1nc(C=C(Br)Br)nn1C` [M 8308], 100%.

Staying with this assay, now noted: 24 h, 2 ppm, Table 5, read-out: Activity (mortality class), Culex P. (larvae).
`CCOP(=S)(OCC)Oc1nc(C=C(Cl)OC)nn1C` [M 8592]: the mortality at 2 ppm was found to be 100%.
Same read-out and setting: for `C=Cc1nc(OP(=S)(OCC)OCC)n(-c2ccccc2)n1` [M 8261] the value was 100%; for `CCCOP(=S)(OCCC)Oc1nc(C=C(Cl)Cl)nn1C(C)C` [M 8500], 70 to 99%.
With `CCOP(=S)(OCC)Oc1nc(C=Cc2ccccc2)nn1C` [M 8332], the mortality at 2 ppm stood at 100%.
For `CCCCn1nc(C=C(Cl)Cl)nc1OP(=S)(OC)OC` [M 8477], the mortality at 2 ppm was 100%.
The same measure, in the same setting: to `CCOP(=S)(OCC)Oc1nc(C2=C(Cl)CCCC2)nn1C` [M 5338/89] belongs 100%; to `CCOP(=S)(OCC)Oc1nc(C=C(Br)Br)nn1C` [M 8308], 100%.

As a reminder, the mortality is the share of the test organisms that died.
